From patent publication US8815863B2, “Compounds and therapeutic use thereof for protein kinase inhibition” (priority 2009, dated 2014)
In brackets after ≈: the same amount, converted by molar mass. Entries after “also recorded” stand apart in the source; their conditions may differ. Read-outs that look alike come from different tables or passages of the source. Each block holds one compound with its values, some of them ahead of it.

Legend:
[1] = target: T1, Chk2 (Homo sapiens, UniProt O96017); experiment: Kinase activity measurement (K-LISA), Chk2; type: biochemical
T1 construct: purchased Upstate Biotechnology, Inc
Experimental: (§1) The K-LISA™ Chk-1/Chk2 Activity Kit was supplied by Calibiochem (Cat. No. CBA020). Chk1 and Chk2 are from Upstate Biotechnology, Inc., and C-Met, HER2, EGFR are from Sigma. The Chk Peptide ([…]) (SEQ ID NO: 1) is from Cell Signaling, Inc., (Beverly, Mass., USA), and is stored at −70° C.
(§2) Kinase activity measurements: Enzyme, sample, Chk peptide, 5 μm ATP, and reaction buffer are added to the holes of biotinylated reaction plates. After the reaction is terminated with a stop buffer, the contents are discarded, replaced with 100 μl/hole of serine kinase antibody, to detect phosphorylation, and HRP-labeled goat-anti-rabbit IgG is added and incubated at room temperature for 1 hour. TMB reaction is conducted to determine substrate phosphorylation, with proper controls. OD450 is measured using VERSAmax (Sunnyvale, Calif., USA). The rate of inhibition is calculated as the follows: Rate of Inhibition (I)=(reaction hole OD Value−OD value of Enzyme-free control)/(OD value of negative control−OD value of enzyme-free control)×100%.

[2] = tested on: Human colon cancer HT-29; experiment: In vitro anti-cancer cell activity, HT-29; type: cell-based; conditions: read-out: In vitro anti-cancer cell activities IC50, Human colon cancer HT-29
Experimental: (§3) Some of the above compounds are tested in vitro or in vivo for their anti-cancer or anti-tumor activities, as well as cellular toxicity tests using SRB and MTT methods. The in vitro anti-cancer effects on human cancer HT-29 and mouse lung cancer cell 3LL are summarized in Table 1, and the effects on treating transplanted human colon cancer […] on nude mice are summarized in Table 2.

[3] = tested on: Mouse Lung Cancer (3LL); experiment: In vitro anti-cancer cell activity, 3LL; type: cell-based; conditions: read-out: In vitro anti-cancer cell activities IC50, Mouse Lung Cancer (3LL)
Experimental: as §3

[4] = tested on: HT-29 Cell line; experiment: SRB cell multiplication test, sensitizing to cytotoxic antitumor drugs; conditions: for sensitizing effects on cytotoxic antitumor drugs at the cellular level (in words): DDP, 5-fu, pemetrexed, oxaliplatin as named in the sentence
Experimental: 3.2 Cell Lines: HT-29 Cell line (from ATCC).
Test Protocol: The effects of the compounds on cancer cell multiplication was measured using Sulforhodamine B (SRB). Specifically, log phase cells are inoculated into the holes of 96-hole culture plates, allowed to grow using the wall-adhesion procedure at 37° C. under 5% CO2. The test compound at 9 different concentrations were added, each concentration in duplicate, with appropriate saline water and cell-less controls. The cells are cultured for a further 72 hours, and fixed with TCA, and SRB is added for staining, and washed, and air-dried. After adding the Tris solution, the OD value was measured at 510 nm using a Spectra Max 190. The rate of inhibition is calculated according to the formula below: Rate of Inhibition=(ODcontrol−ODdrug)/ODcontrol×100%.
The IC50 is calculated based on the above ratios.

[5] = tested on: human low differentiation stomach cancer BGC-823; experiment: MTT cytotoxicity, BGC-823; type: cell-based
Experimental: (§4) Cell lines: human low differentiation stomach cancer BGC-823, human liver cancer QGY-7701, mouse lung cancer 3LL.
(§5) Experimental Details: The cyto-toxicity of XC608 is measured using the MTT method. Specifically: (1) cell culture: (i) frozen cells are removed from liquid nitrogen, rapidly thawed in 37° C. water bath; added to 6 ml DMEM culture medium in a 10 ml centrifuge tubes under sterile conditions, centrifuged at 1000 rpm for 5 min., with the supernatant removed. To the sediment is added 5-6 ml of DMEM medium, and re-suspended and cultured overnight at 37° C. (ii) The cells are centrifuged, washed twice with PBS, and treated with 3-4 drops of trypsin solution for about 3 minute at 37° C., and monitored under microscope to ensure that all cells are separated from the culture tube walls, and re-suspended in additional DMEM medium. […] (2) Test compound preparation: XC608 and XC302 are dissolved in PBS and serial diluted to 1000, 100, 10, 1, 0.1 and 0.01 μg/ml. (3) The prepared test compound solution is added to the holes of a 96-hole culture plate, 10 μl/hole, with two holes per concentration point, and 10 μl PBS as control. (4) Prepare a suspension of log phase cell in a DMEM medium containing 10% new born bovine serum with a cell concentration of 2×10^5/ml.
(§6) (5) add 90 μl cell suspension to each of the holes containing the test compound or control. […]

[6] = tested on: human liver cancer QGY-7701; experiment: MTT cytotoxicity, QGY-7701; type: cell-based
Experimental: as §4, §5, §6

[7] = tested on: mouse lung cancer 3LL; experiment: MTT cytotoxicity, 3LL; type: cell-based; conditions: 48 hours
Experimental: as §4, §5, §6

[8] = target: T2, Chk1 (Homo sapiens, UniProt O14757); experiment: Kinase activity measurement (K-LISA), Chk1; type: biochemical
T2 construct: purchased Upstate Biotechnology, Inc
T2 sequence (O14757 1-476): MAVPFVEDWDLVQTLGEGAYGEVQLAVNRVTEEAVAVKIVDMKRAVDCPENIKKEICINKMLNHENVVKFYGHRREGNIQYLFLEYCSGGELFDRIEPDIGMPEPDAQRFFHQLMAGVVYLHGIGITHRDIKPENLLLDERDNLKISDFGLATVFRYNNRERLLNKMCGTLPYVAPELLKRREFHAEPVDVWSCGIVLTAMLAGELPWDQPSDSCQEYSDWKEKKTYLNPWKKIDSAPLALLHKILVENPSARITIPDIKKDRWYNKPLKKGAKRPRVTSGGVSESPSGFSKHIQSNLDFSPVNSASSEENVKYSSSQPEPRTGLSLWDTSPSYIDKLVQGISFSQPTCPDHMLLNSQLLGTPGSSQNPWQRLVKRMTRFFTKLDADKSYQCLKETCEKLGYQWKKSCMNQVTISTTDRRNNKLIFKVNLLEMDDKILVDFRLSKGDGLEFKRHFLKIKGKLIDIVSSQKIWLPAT
Experimental: The K-LISA™ Chk-1/Chk2 Activity Kit was supplied by Calibiochem (Cat. No. CBA020). Chk1 and Chk2 are from Upstate Biotechnology, Inc., and C-Met, HER2, EGFR are from Sigma.
as §2, with “After” for “Kinase activity measurements: Enzyme, sample, Chk peptide, 5 μm ATP, and reaction buffer are added to the holes of biotinylated reaction plates. After”

[9] = target: T3, c-Met (Homo sapiens, UniProt P08581); experiment: Kinase activity measurement, c-Met; type: biochemical
T3 construct: purchased Sigma
Experimental: as §1, §2

[10] = target: T4, HER2 (Homo sapiens, UniProt P04626); experiment: Kinase activity measurement, HER2; type: biochemical
T4 construct: purchased Sigma
Experimental: as §1, §2

[11] = target: T5, EGFR (Homo sapiens, UniProt P00533); experiment: Kinase activity measurement, EGFR; type: biochemical
T5 construct: purchased Sigma
Experimental: as §1, §2

[12] = tested on: cdc2 phosphorylation; experiment: cdc2 phosphorylation induced by topoisomerase I; type: cell-based
Source text: The effects of XC608 on the activity of protein kinases Chk1, Chk2 and c-met, and on cells entering cell cycle after drug-induced DNA damages and cellular reactions to DNA damages are studied.

[13] = tested on: human colon cancer HT-29; experiment: Nude mice transplanted with human colon cancer HT-29, XC608 with ADR and 5-fu; type: in vivo; conditions: HT-29 in nude mice
Experimental: (§7) Nude mice transplanted with human colon cancer HT-29 and SW-620 and breast cancer MDA-MB-231 are tested using XC608 alone and in combination with ADR and 5-fu.

[14] = tested on: human colon cancer SW-620; experiment: Nude mice transplanted with human colon cancer SW-620, XC608 with ADR and 5-fu; type: in vivo; conditions: SW-620 in nude mice
Experimental: as §7

[15] = Homo sapiens, HT-29, 72 h, read-out: IC50 Drug alone
[16] = read-out: IC50 +10 nM AZD7762, HT-29, SRB, 72 hours, drug +10 nM AZD7762
[17] = read-out: IC50 +100 nM AZD7762, HT-29, SRB, 72 hours, drug +100 nM AZD7762
[18] = read-out: IC50 +1 μM XC608, HT-29, SRB, 72 hours, drug +1 μM XC608
[19] = read-out: IC50 Drug alone, HT-29, SRB, 72 hours, drug alone

T1 sequence (O96017 whole entry): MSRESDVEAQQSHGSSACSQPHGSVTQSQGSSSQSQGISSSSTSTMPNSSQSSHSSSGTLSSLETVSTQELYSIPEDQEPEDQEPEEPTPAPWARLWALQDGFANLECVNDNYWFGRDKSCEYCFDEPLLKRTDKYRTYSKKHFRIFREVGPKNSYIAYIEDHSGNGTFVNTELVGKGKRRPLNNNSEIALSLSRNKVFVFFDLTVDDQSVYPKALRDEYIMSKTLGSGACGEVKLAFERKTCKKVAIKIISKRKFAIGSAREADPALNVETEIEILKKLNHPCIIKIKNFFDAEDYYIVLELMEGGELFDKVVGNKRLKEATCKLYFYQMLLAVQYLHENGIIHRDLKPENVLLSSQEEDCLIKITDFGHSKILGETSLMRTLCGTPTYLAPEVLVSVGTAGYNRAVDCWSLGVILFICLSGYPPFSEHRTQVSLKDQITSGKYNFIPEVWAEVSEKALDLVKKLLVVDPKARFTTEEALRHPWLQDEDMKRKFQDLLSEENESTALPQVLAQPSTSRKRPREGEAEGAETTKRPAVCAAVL
T3 sequence (P08581 25-1390): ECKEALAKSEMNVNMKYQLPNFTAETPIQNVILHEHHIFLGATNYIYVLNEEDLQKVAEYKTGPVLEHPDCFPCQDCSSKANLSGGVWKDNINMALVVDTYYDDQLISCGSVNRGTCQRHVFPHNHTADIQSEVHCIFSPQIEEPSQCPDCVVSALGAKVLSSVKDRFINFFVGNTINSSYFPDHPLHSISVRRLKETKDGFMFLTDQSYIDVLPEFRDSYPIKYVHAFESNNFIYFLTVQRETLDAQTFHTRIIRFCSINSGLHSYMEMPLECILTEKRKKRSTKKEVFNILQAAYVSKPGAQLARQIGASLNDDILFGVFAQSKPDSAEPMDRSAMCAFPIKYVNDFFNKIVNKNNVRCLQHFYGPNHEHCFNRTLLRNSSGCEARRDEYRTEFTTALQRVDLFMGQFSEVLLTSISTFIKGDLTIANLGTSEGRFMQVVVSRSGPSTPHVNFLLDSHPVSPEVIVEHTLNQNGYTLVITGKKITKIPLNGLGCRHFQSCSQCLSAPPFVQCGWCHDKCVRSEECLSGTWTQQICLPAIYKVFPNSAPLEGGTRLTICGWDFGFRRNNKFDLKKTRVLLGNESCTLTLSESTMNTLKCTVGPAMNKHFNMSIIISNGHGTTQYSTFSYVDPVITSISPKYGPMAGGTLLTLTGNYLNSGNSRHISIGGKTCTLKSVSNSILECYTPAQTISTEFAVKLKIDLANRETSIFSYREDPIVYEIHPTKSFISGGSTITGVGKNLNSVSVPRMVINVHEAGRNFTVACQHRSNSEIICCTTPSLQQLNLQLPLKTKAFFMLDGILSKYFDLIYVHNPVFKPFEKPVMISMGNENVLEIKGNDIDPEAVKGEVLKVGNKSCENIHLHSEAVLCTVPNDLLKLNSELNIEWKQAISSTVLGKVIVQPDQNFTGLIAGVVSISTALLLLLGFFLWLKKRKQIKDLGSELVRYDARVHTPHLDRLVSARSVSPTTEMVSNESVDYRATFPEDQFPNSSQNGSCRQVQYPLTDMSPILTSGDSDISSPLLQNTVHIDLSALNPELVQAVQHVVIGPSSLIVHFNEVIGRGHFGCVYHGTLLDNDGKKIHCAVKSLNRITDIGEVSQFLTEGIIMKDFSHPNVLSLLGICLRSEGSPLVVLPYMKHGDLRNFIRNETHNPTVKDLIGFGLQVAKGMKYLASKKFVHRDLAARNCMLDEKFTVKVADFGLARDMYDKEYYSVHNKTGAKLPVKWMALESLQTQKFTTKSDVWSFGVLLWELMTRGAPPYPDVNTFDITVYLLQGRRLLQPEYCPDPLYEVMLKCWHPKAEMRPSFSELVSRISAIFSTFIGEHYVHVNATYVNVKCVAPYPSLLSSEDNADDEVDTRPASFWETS
T5 sequence (P00533 25-1210): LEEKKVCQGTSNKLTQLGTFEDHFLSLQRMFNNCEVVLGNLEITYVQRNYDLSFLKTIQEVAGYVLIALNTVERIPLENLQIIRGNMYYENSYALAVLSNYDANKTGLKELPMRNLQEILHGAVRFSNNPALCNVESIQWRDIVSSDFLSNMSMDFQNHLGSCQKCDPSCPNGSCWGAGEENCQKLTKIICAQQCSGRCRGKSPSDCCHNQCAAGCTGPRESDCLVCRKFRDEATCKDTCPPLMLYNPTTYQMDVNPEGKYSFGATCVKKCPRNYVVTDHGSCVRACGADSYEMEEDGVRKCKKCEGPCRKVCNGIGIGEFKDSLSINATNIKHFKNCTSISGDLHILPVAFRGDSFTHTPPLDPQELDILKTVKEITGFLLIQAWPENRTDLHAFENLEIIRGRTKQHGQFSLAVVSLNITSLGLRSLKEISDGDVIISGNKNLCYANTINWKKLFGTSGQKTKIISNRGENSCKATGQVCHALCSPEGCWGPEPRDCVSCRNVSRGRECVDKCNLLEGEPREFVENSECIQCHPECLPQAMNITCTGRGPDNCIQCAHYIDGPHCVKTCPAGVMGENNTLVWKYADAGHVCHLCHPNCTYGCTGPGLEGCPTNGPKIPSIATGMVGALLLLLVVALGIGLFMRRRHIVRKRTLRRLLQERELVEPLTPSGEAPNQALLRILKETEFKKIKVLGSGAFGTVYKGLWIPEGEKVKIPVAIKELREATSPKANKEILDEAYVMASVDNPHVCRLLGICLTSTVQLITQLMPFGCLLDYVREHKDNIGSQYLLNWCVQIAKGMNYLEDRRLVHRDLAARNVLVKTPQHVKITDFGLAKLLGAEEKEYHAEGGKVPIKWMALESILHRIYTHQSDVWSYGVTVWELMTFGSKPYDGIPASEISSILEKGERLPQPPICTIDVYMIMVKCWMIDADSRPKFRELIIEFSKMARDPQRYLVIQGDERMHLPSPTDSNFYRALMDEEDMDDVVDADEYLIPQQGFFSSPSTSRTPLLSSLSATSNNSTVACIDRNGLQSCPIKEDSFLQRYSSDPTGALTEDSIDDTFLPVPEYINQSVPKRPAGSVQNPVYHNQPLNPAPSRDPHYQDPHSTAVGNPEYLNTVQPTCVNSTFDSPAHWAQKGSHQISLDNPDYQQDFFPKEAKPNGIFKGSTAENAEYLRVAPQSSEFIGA
T4 sequence (P04626 23-1255): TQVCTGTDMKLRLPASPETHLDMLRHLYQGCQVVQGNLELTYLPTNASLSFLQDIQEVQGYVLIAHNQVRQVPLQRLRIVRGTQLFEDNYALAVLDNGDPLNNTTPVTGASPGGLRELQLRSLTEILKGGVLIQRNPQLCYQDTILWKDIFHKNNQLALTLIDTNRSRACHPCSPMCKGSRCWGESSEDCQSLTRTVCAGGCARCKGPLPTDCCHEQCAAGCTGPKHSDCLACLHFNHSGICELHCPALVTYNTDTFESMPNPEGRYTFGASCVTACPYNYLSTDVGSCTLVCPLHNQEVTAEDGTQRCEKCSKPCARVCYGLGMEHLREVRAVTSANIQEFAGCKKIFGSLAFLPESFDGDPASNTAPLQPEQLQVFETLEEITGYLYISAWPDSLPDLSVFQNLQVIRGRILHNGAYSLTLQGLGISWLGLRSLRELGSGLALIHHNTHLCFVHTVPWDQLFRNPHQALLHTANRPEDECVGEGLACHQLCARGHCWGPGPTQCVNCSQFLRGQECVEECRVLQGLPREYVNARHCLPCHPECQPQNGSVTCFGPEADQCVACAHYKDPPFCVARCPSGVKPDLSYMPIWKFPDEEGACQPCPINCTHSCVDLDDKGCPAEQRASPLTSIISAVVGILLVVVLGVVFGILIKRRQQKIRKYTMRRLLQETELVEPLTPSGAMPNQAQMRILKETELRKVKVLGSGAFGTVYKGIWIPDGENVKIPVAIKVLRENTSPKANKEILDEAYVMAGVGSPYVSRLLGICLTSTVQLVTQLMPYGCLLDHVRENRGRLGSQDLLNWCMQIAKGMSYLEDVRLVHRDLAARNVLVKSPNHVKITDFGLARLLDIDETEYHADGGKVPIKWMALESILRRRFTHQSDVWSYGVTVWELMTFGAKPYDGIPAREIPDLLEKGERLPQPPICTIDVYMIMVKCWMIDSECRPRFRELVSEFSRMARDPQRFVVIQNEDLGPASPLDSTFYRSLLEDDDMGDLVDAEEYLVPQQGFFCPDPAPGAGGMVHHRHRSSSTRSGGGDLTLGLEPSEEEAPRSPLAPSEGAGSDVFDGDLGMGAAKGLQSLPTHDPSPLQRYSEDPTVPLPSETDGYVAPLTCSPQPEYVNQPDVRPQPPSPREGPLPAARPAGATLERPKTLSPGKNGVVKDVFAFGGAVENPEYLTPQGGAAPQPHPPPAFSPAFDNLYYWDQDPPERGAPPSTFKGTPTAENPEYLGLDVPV

Structure (SMILES): NC(=O)Nc1cc(-c2cccc(F)c2)sc1C(=O)N[C@H]1CCCNC1 [AZD7762]
inhibition at 0.1 µM ([1]; 100 nM, read-out: Inhibition (%) (Mean ± SD) Chk2): 99%

IC50 [2]: 1.58 µM | IC50 [3]: 1.88 µM
Structure (SMILES): NC(=O)c1nnc(NC2CCCNC2)c2cc(-c3ccc(F)cc3)sc12 (centres unmarked) [Compound 1, 2-(4-fluorophenyl)-4-(3-piperidineamino)-thieno[2,3-d]pyridazine-7-carboxylic acid amide]

Structure (SMILES): O=c1[nH]cc(F)c(=O)[nH]1 [Compound 5-Fu, 5-fluorouracil]
IC50 [4, 15]: 1.1 µM | IC50 [4, 16]: 1 µM | IC50 [4, 17]: 0.3 µM | IC50 [4, 18]: 0.2 µM

Structure (SMILES): N.N.[Cl][Pt][Cl] [DDP, cisplatin]
IC50 [4, 16]: 5.2 µM | IC50 [4, 17]: 1.3 µM | IC50 [4, 18]: 1.3 µM | IC50 [4, 19]: 7.7 µM

Structure (SMILES): CC(=O)O[C@H]1C(=O)[C@@]2(C)[C@H]([C@H](OC(=O)c3ccccc3)[C@]3(O)C[C@H](OC(=O)[C@H](O)[C@@H](NC(=O)c4ccccc4)c4ccccc4)C(C)=C1C3(C)C)[C@]1(OC(C)=O)CO[C@@H]1C[C@@H]2O [Paclitaxel, paclitaxel]
IC50 [4, 15]: 0.003 µM | IC50 [4, 17]: 0.005 µM | IC50 [4, 18]: 0.002 µM

Structure (SMILES): CS(=O)(=O)O.CS(=O)(=O)O.O.O.c1cnc2ccc(Nc3nc(NC4CC4)c4nc[nH]c4n3)cc2c1 [XC302]
IC50, inhibition of cancer cell multiplication, BGC-823 ([5]; 48 hours): 4.77 µg/mL | IC50, inhibition of cancer cell multiplication, QGY-7701 ([6]; 48 hours): 6.69 µg/mL | IC50, inhibition of cancer cell multiplication, 3LL [7]: 2.96 µg/mL

specificity for Chk1 (conclusion in words) [8]: specific Chk1 inhibitor | inhibition at 1 µM ([8]; 1 μM, read-out: Inhibition (%) (Mean ± SD) Chk1): 85 ± 11.1% | inhibition at 1 µM ([1]; 1 μM, read-out: Inhibition (%) (Mean ± SD) Chk2): 90 ± 13.2% | effect on c-met (in words) [9]: not apparent effect | inhibition at 1 µM ([9]; 1 μM, read-out: Inhibition (%) (Mean ± SD) c-Met): 15.9% | effect on HER2 (in words) [10]: not apparent effect | inhibition at 1 µM ([10]; 1 μM, read-out: Inhibition (%) (Mean ± SD) HER2): 10.2 ± 1.3% | effect on EGFR (in words) [11]: not apparent effect | inhibition at 1 µM ([11]; 1 μM, read-out: Inhibition (%) (Mean ± SD) EGFR): 15.9 ± 5.3% | effect on cdc2 phosphorylation induced by topoisomerase I (in words) [12]: eliminates; also recorded: reduces
Structure (SMILES): NC(=O)c1nnc(N[C@H]2CCCNC2)c2cc(-c3cccc(F)c3)sc12 [XC608]
IC50 ([5]; Homo sapiens, BGC-823, 48 hours, read-out: IC50, inhibition of cancer cell multiplication, BGC-823): 7.11 µg/mL (≈ 19.1 µM) | IC50 ([6]; Homo sapiens, QGY7701, 48 hours, read-out: IC50, inhibition of cancer cell multiplication, QGY-7701): 5.14 µg/mL (≈ 13.8 µM) | IC50 ([7]; Mus musculus, read-out: IC50, inhibition of cancer cell multiplication, 3LL): 1.05 µg/mL (≈ 2.83 µM) | effect on activity of Chk1 (in words) [8]: clearly inhibits; also recorded: strongly inhibits | effect on activity of Chk2 (in words) [1]: clearly inhibits; also recorded: strongly inhibits | sensitizing effects on the treatment effects of ADR and 5-fu (in words) [13]: significant sensitizing effects | sensitizing effects on the treatment effects of ADR and 5-fu (in words) [14]: significant sensitizing effects | sensitizing effect on gemcitabine ([4]; cell cultures, gemcitabine): more than 20 times | sensitizing effects on cytotoxic antitumor drugs at the cellular level (in words) ([4]; gemcitabine): strong sensitizing effects | sensitizing effects on cytotoxic antitumor drugs at the cellular level (in words) ([4]; gemcitabine, listed as XC-608): effective in sensitizing

Structure (SMILES): O=C1[O][Pt]2([NH][C@@H]3CCCC[C@H]3[NH]2)[O]C1=O [oxaliplatin]
IC50 [4, 16]: 2.5 µM | IC50 [4, 17]: 1.1 µM | IC50 [4, 18]: 1.3 µM | IC50 [4, 19]: 1.6 µM
